Key:
Zymosan paw oedema = test: Zymosan-induced paw oedema in rats, topically applied copper-salicylates; settings: topical, DMSO-glycerol 4:1 v/v, 5 ml/kg
Carrageenan paw oedema = test: Carrageenan-induced paw oedema in rats, topically applied copper-salicylates; settings: topical
Method: All materials applied to shaved dorsal skin
in vehicle (= DMSO--glycerol), 4:1 v/v, 5 ml/kg except as
*Vehicle = ethanolglycerol (4:1 v/v)

[1] = test system: artificially induced inflammation in rats (sodium carrageenan); test: Carrageenan foot swelling after topical treatment (Example 5, FIG. 2); assay type: in vivo, Male Wistar rats; settings: topical, 154, 231, 462 and 770 mg, about 6 hours before carrageenan
Method: Male Wistar rats (average weight 250 g) were anaesthetised with diethyl ether and an area of c. 20 sq.cm was shaven high on their backs. The rats were then separated into 7 groups. Group 1, the control rats were not treated. Group 2 rats were treated by the application of a mixture of alcohol and glycerol (4:1), the carrier used for the compound Cu[H Sal]2. C2 H5 OH. Group 3 rats were treated with a 7% w/v solution of salicylic acid in a mixture of alcohol and glycerol (4:1). Group 4, 5, 6 and 7 rats were treated with amounts of Cu[H Sal]2. C2 H5 OH composition prepared according to example 3 containing 154 mg, 231 mg, 462 mg, and 770 mg respectively, of Cu[H Sal]2. C2 H5 OH.
About 6 hours after the topical treatment of the rats, inflammation was induced in a foot of each rat in each of the groups by the injection of 0.1 ml of 1% saline solution of sodium carrageenan into a foot pad of each rat. The inflammation of the feet of the rats in each group was then monitored by the swelling of the feet with a micrometer screw-gauge.
The results are shown in FIG. 2 wherein the curves represent the increase in paw thickness of the rats with time after the injection of the inflammatory agent. The curves 1 to 7 represent the swelling of the paws of the rats of groups 1 to 7 respectively.

[2] = test system: polyarthritis induced in rats with Mycobacterium tuberculosis in squalane; test: Polyarthritis induced with Mycobacterium tuberculosis in squalane; assay type: in vivo; settings: Cu[H Sal]2. DMSO formulation
[3] = DA × Lewis, 2 Hour, DMSO-glycerol 4:1 v/v, 5 ml/kg
[4] = DA × Lewis, 4 Hour, DMSO-glycerol 4:1 v/v, 5 ml/kg
[5] = Wistar, 2 Hour, DMSO-glycerol 4:1 v/v, 5 ml/kg
[6] = Wistar, 4 Hour, DMSO-glycerol 4:1 v/v, 5 ml/kg

O=C(O)c1ccccc1O [Salicylic acid (alone), Salicylic acid]
% Inhibition of paw oedema induced with Zymosan (Zymosan paw oedema; DA × Lewis, 2 Hour): -08%
% Inhibition of paw oedema induced with Zymosan (Zymosan paw oedema; DA × Lewis, 4 Hour): -05%
% Inhibition of paw oedema induced with Zymosan (Zymosan paw oedema; Wistar, 1 Hour): 22%
% Inhibition of paw oedema induced with Zymosan (Zymosan paw oedema; Wistar, 2 Hour): 16%
% Inhibition of paw oedema induced with Carrageenan (Carrageenan paw oedema; [3]): 44%
% Inhibition of paw oedema induced with Carrageenan (Carrageenan paw oedema; [4]): 32%
% Inhibition of paw oedema induced with Carrageenan (Carrageenan paw oedema; [5]): 14%
% Inhibition of paw oedema induced with Carrageenan (Carrageenan paw oedema; [6]): 18%

copper salicylate ethanolate [Cu[H Sal]2. C2 H5 OH]
anti-inflammatory effect (increase in paw thickness with time) [1]: clearly shows the anti-inflammatory effect
% Inhibition of paw oedema induced with Carrageenan (Carrageenan paw oedema; Wistar, 2 Hour, ethanol-glycerol 4:1 v/v, 5 ml/kg): 24%
% Inhibition of paw oedema induced with Carrageenan (Carrageenan paw oedema; Wistar, 2 Hour, ethanol-glycerol 4:1 v/v, 15 ml/kg): 58%
% Inhibition of paw oedema induced with Carrageenan (Carrageenan paw oedema; Wistar, 4 Hour, ethanol-glycerol 4:1 v/v, 5 ml/kg): 32%
% Inhibition of paw oedema induced with Carrageenan (Carrageenan paw oedema; Wistar, 4 Hour, ethanol-glycerol 4:1 v/v, 15 ml/kg): 53%

CC(=O)[O-].CC(=O)[O-].[Cu+2] [Cu(OAc)]
% Inhibition of paw oedema induced with Zymosan (Zymosan paw oedema; DA × Lewis, 2 Hour): 14%
% Inhibition of paw oedema induced with Zymosan (Zymosan paw oedema; DA × Lewis, 4 Hour): 04%
% Inhibition of paw oedema induced with Zymosan (Zymosan paw oedema; Wistar, 1 Hour): 12%
% Inhibition of paw oedema induced with Zymosan (Zymosan paw oedema; Wistar, 2 Hour): 12%
% Inhibition of paw oedema induced with Carrageenan (Carrageenan paw oedema; [5]): 04%
% Inhibition of paw oedema induced with Carrageenan (Carrageenan paw oedema; [6]): 11%

CS(C)=O.O=C([O-])c1ccccc1O.O=C([O-])c1ccccc1O.[Cu+2] [Cu[H Sal]2 . DMSO, copper salicylate DMSO]
% Inhibition of paw oedema induced with Zymosan (Zymosan paw oedema; DA × Lewis, 2 Hour): 36%
% Inhibition of paw oedema induced with Zymosan (Zymosan paw oedema; DA × Lewis, 4 Hour): 22%
% Inhibition of paw oedema induced with Zymosan (Zymosan paw oedema; Wistar, 1 Hour): 43%
% Inhibition of paw oedema induced with Zymosan (Zymosan paw oedema; Wistar, 2 Hour): 21%
% Inhibition of paw oedema induced with Carrageenan (Carrageenan paw oedema; [3]): 47%
% Inhibition of paw oedema induced with Carrageenan (Carrageenan paw oedema; [4]): 39%
% Inhibition of paw oedema induced with Carrageenan (Carrageenan paw oedema; [5]): 46%
% Inhibition of paw oedema induced with Carrageenan (Carrageenan paw oedema; [6]): 53%
effect on the progress of polyarthritis [2]: effective on the progress of polyarthritis

Reference: patent US4287190A, “Complexes of bivalent copper” (priority 1979, dated 1981)
